Common to all, as to type: cell-based
Assay [1] deals with Proteus mirabilis C977. As to the kind of experiment: MIC, microtitre using Nutrient broth. Particulars: Proteus mirabilis C977; Microtitre using nutrient broth; inoculum 0.001 ml of a 10^-2 dilution for G + ve bacteria or a 10^-4 dilution for G - ve organisms; read-out: MIC Broth. The source says:
(§1) The ninimum inhibitory concentrations (MIC) cf this compound required to inhibit the growth of various bacteria are tabulated balow: […]

The subject of assay [2] is Staphylococcus aureus Russell. In words: MIC, microtitre using Nutrient broth. Conditions: Staphylococcus aureus Russell; Microtitre using nutrient broth; inoculum 0.001 ml of a 10^-2 dilution for G + ve bacteria or a 10^-4 dilution for G - ve organisms; read-out: MIC Broth.
Excerpt: as §1

The subject of assay [3] is Klebsiella aerogenes A. As to the kind of experiment: MIC, microtitre using Nutrient broth. Conditions: Klebsiella aerogenes A; Microtitre using nutrient broth; inoculum 0.001 ml of a 10^-2 dilution for G + ve bacteria or a 10^-4 dilution for G - ve organisms; read-out: MIC Broth.
Excerpt: as §1

Assay [4] deals with Pseudomonas aeruginosa A. In words: MIC, microtitre using Nutrient broth. Conditions: Pseudomonas aeruginosa A; Microtitre using nutrient broth; inoculum 0.001 ml of a 10^-2 dilution for G + ve bacteria or a 10^-4 dilution for G - ve organisms; read-out: MIC Broth.
Excerpt: as §1

The test system of assay [5] is Escherichia coli 0111. In words: MIC, microtitre using Nutrient broth. Particulars: Microtitre using nutrient broth, inoculum 0.001 ml of a 10^-2 dilution for G + ve bacteria or a 10^-4 dilution for G - ve organisms.
Excerpt: as §1

Assay [6] relates to Escherichia coli JT 39. As to the kind of experiment: MIC, microtitre using Nutrient broth. Conditions: JT39; Escherichia coli JT 39; Microtitre using nutrient broth; inoculum 0.001 ml of a 10^-2 dilution for G + ve bacteria or a 10^-4 dilution for G - ve organisms; read-out: MIC Broth.
Excerpt: as §1

Assay [7] deals with Salmonella typhimurium CT10. As to the kind of experiment: MIC, DST agar + 10% horse blood. Conditions: Salmonella enterica; Salmonella typhimurium CT10; DST agar + 10% horse blood; inoculum 0.001 ml of a 10^-2 dilution for G + ve bacteria or a 10^-4 dilution for G - ve organisms; read-out: MIC Agar.
Excerpt: as §1

For assay [8], the system named is E. coli ESS. As to the kind of experiment: MIC, DST agar + 10% horse blood. Particulars: Escherichia coli, inoculum 0.001 ml of a 10^-2 dilution for G + ve bacteria or a 10^-4 dilution for G - ve organisms.
Excerpt: as §1

Assay [9] relates to Proteus rettgeri WM16. In words: MIC, DST agar + 10% horse blood. Particulars: Providencia rettgeri; Proteus rettgeri WM16; DST agar + 10% horse blood; inoculum 0.001 ml of a 10^-2 dilution for G + ve bacteria or a 10^-4 dilution for G - ve organisms; read-out: MIC Agar.
Excerpt: as §1

Assay [10] has as its system Proteus mirabilis C977. As to the kind of experiment: MIC, DST agar + 10% horse blood. Particulars: Proteus mirabilis C977; DST agar + 10% horse blood; inoculum 0.001 ml of a 10^-2 dilution for G + ve bacteria or a 10^-4 dilution for G - ve organisms; read-out: MIC Agar.
Excerpt: as §1

In assay [11] the test system is Staphylococcus aureus Russell. In words: MIC, DST agar + 10% horse blood. Conditions: Staphylococcus aureus Russell; DST agar + 10% horse blood; inoculum 0.001 ml of a 10^-2 dilution for G + ve bacteria or a 10^-4 dilution for G - ve organisms; read-out: MIC Agar.
Excerpt: as §1

Assay [12] relates to Streptococcus pneumoniae CN33. As to the kind of experiment: MIC, DST agar + 10% horse blood. Conditions: Streptococcus pneumoniae CN33; DST agar + 10% horse blood; inoculum 0.001 ml of a 10^-2 dilution for G + ve bacteria or a 10^-4 dilution for G - ve organisms; read-out: MIC Agar.
Excerpt: as §1

Assay [13] concerns Klebsiella aerogenes A. As to the kind of experiment: MIC, DST agar + 10% horse blood. Particulars: Klebsiella aerogenes A; DST agar + 10% horse blood; inoculum 0.001 ml of a 10^-2 dilution for G + ve bacteria or a 10^-4 dilution for G - ve organisms; read-out: MIC Agar.
Excerpt: as §1

For assay [14], the system named is Shigella sonnei MB 11967. As to the kind of experiment: MIC, DST agar + 10% horse blood. Conditions: MB11967, inoculum 0.001 ml of a 10^-2 dilution for G + ve bacteria or a 10^-4 dilution for G - ve organisms.
Excerpt: as §1

In assay [15] the test system is Streptococcus faecalis I. In words: MIC, DST agar + 10% horse blood. Conditions: Enterococcus faecalis; Streptococcus faecalis I; DST agar + 10% horse blood; inoculum 0.001 ml of a 10^-2 dilution for G + ve bacteria or a 10^-4 dilution for G - ve organisms; read-out: MIC Agar.
Excerpt: as §1

Assay [16] deals with Streptococcus pyogenes CN10. In words: MIC, DST agar + 10% horse blood. Conditions: Streptococcus pyogenes CN10; DST agar + 10% horse blood; inoculum 0.001 ml of a 10^-2 dilution for G + ve bacteria or a 10^-4 dilution for G - ve organisms; read-out: MIC Agar.
Excerpt: as §1

Assay [17] deals with Citrobacter freundii E8. In words: MIC, DST agar + 10% horse blood. Conditions: Citrobacter freundii E8; DST agar + 10% horse blood; inoculum 0.001 ml of a 10^-2 dilution for G + ve bacteria or a 10^-4 dilution for G - ve organisms; read-out: MIC Agar.
Excerpt: as §1

For assay [18], the system named is Escherichia coli 0111. In words: MIC, DST agar + 10% horse blood. Particulars: Escherichia coli 0111, inoculum 0.001 ml of a 10^-2 dilution for G + ve bacteria or a 10^-4 dilution for G - ve organisms.
Excerpt: as §1

The test system of assay [19] is Escherichia coli JT 39. In words: MIC, DST agar + 10% horse blood. Particulars: JT39; Escherichia coli JT 39; DST agar + 10% horse blood; inoculum 0.001 ml of a 10^-2 dilution for G + ve bacteria or a 10^-4 dilution for G - ve organisms; read-out: MIC Agar.
Excerpt: as §1

Assay [20] deals with Staphylococcus aureus 1517. As to the kind of experiment: MIC, DST agar + 10% horse blood. Particulars: Staphylococcus aureus 1517; DST agar + 10% horse blood; inoculum 0.001 ml of a 10^-2 dilution for G + ve bacteria or a 10^-4 dilution for G - ve organisms; read-out: MIC Agar.
Excerpt: as §1

The test system of assay [21] is Staphylococcus aureus Oxford. In words: MIC, DST agar + 10% horse blood. Particulars: Staphylococcus aureus Oxford; DST agar + 10% horse blood; inoculum 0.001 ml of a 10^-2 dilution for G + ve bacteria or a 10^-4 dilution for G - ve organisms; read-out: MIC Agar.
Excerpt: as §1

Assay [22] has as its system Serratia marcescens US20. As to the kind of experiment: MIC, DST agar + 10% horse blood. Conditions: Serratia marcescens US20; DST agar + 10% horse blood; inoculum 0.001 ml of a 10^-2 dilution for G + ve bacteria or a 10^-4 dilution for G - ve organisms; read-out: MIC Agar.
Excerpt: as §1

As to `CC(=O)OCC1=C(C(=O)O)N2C(=O)CC2S1` (centres unmarked) [compound 21, Sodium 2-Acetoxymethyl penem-3-carboxylate], the MIC (in general, the lowest concentration found to suppress growth) amounted to 8 µg/mL in [1]; 8 µg/mL in assay [2]; 8 µg/mL in assay [3]; 500 µg/mL in [4]; 8 µg/mL in assay [5]; 31 µg/mL in [6]. Further, the MIC in assay [7] came out at 25 µg/mL; in assay [8] it was 10 µg/mL; in [9] it was 50 µg/mL; in assay [10], 10 µg/mL; in assay [11], 10 µg/mL; in assay [12], 0.5 µg/mL. For the same compound, the MIC was found to be 10 µg/mL in assay [13]; 50 µg/mL in assay [14]; 100 µg/mL in [15]; 2.5 µg/mL in assay [16]; 10 µg/mL in assay [17]; 25 µg/mL in assay [18]. Further, the MIC in assay [19] is 50 µg/mL; in assay [20], 50 µg/mL; in assay [21] it was 10 µg/mL; in assay [22], 25 µg/mL.

Regarding `O=C(O)C1=C(CO)SC2CC(=O)N12` (centres unmarked) [compound 19, Sodium 2-Hydroxymethyl penem-3-carboxylate], the MIC is 62 µg/mL in assay [1]; 8 µg/mL in assay [2]; 31 µg/mL in assay [3]; 62 µg/mL in assay [4]; 31 µg/mL in assay [5]; 62 µg/mL in assay [6]. Also, the MIC is 10 µg/mL in assay [7]; 10 µg/mL in assay [8]; 50 µg/mL in [9]; 25 µg/mL in assay [10]; 2.5 µg/mL in assay [11]; 1 µg/mL in assay [12]. Besides, the MIC in assay [13] came to 10 µg/mL; in assay [14] it was 10 µg/mL; in [15] it was 100 µg/mL; in assay [16], 1 µg/mL; in assay [17] it was 10 µg/mL; in [18], 10 µg/mL. The MIC in assay [19] worked out at 10 µg/mL; in assay [20] it was 25 µg/mL; in [21], 2.5 µg/mL; in [22] it was 10 µg/mL.

Values taken from patent publication EP0013067A1, “Bicyclic beta-lactam antibacterial agents, their use in pharmaceutical compositions, processes for their preparation and intermediates for use in such processes” (BEECHAM GROUP PLC, priority 1978, dated 1980).
